Results taken from ChEMBL document CHEMBL1255413, “Proteus mirabilis pmrI, an RppA-regulated gene necessary for polymyxin B resistance, biofilm formation, and urothelial cell invasion” (2010).
In brackets after ≈: the same amount, converted by molar mass.

Experiments:
Proteus mirabilis [1] = test: Antimicrobial activity against PpmrI knockout mutant Proteus mirabilis dIp after 16 to 18 hrs by broth microdilution method; assay type: functional
Proteus mirabilis [2] = test: Antimicrobial activity against wild type Proteus mirabilis N2 […] after 16 to 18 hrs by broth microdilution method; assay type: functional
Proteus mirabilis [3] = test: Antimicrobial activity against PpmrI knockout mutant Proteus mirabilis dIpc complemented with PPmrI gene after 16 to 18 hrs by broth microdilution method; assay type: functional
Proteus mirabilis [4] = test: Antimicrobial activity against Proteus mirabilis I2 mutant after 16 to 18 hrs by broth microdilution method; assay type: functional, organism-based

Molecule	MIC (Proteus mirabilis [1]) [µg/mL]	MIC (Proteus mirabilis [2]) [µg/mL]	MIC (Proteus mirabilis [3]) [µg/mL]	MIC (Proteus mirabilis [4]) [µg/mL]
CC1(C)S[C@@H]2[C@H](NC(=O)[C@H](N)c3ccccc3)C(=O)N2[C@H]1C(=O)O [AMPICILLIN]	16 (≈ 45.8 µM)	16 (≈ 45.8 µM)	16 (≈ 45.8 µM)	
C[C@@H](O)[C@H]1C(=O)N2C(C(=O)O)=C(SCCNC=N)C[C@H]12 [IMIPENEM ANHYDROUS]	0.25 (≈ 0.835 µM)	2 (≈ 6.68 µM)	2 (≈ 6.68 µM)	
CN(C)[C@@H]1C(O)=C(C(N)=O)C(=O)[C@@]2(O)C(O)=C3C(=O)c4c(O)cccc4[C@@](C)(O)[C@H]3C[C@@H]12 [TETRACYCLINE]	32 (≈ 72 µM)	32 (≈ 72 µM)	32 (≈ 72 µM)	
GENTAMICIN	4	4	4	
POLYMYXIN B	4			4
